Test [1] deals with T1, P180C/E186C PTP1B (protein tyrosine phosphatase 1B) (Homo sapiens, UniProt P18031, E186C/P180C).
T1 sequence (P18031 1-435 P180C/E186C): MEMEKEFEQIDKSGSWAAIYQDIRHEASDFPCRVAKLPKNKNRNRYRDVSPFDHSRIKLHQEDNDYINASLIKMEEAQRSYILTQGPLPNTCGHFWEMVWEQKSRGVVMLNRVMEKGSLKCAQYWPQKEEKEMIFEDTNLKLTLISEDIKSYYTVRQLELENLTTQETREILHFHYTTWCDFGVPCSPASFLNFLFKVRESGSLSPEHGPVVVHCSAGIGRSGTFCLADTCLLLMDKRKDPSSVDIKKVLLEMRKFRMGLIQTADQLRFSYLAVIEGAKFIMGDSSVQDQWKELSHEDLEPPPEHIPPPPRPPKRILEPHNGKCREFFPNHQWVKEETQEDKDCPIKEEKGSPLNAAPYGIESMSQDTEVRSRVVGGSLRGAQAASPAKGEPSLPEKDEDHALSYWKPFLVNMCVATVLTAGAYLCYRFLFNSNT
Nature of the test: pNPP phosphatase assay with purified enzyme. The test is classed as biochemical.

Test [2] has as its target P180C/P185C PTP1B (protein tyrosine phosphatase 1B) (Homo sapiens, UniProt P18031, P180C/P185C). Nature of the test: biochemical.
Test [3] concerns the target wild-type PTP1B (protein tyrosine phosphatase 1B) (Homo sapiens, UniProt P18031). Nature of the test: biochemical.
Test [4] deals with T1, P180C/E186C PTP1B (protein tyrosine phosphatase 1B). Nature of the test: biochemical.

P180C/P185C PTP1B (protein tyrosine phosphatase 1B), sequence (P18031 1-321 P180C/P185C limits assumed): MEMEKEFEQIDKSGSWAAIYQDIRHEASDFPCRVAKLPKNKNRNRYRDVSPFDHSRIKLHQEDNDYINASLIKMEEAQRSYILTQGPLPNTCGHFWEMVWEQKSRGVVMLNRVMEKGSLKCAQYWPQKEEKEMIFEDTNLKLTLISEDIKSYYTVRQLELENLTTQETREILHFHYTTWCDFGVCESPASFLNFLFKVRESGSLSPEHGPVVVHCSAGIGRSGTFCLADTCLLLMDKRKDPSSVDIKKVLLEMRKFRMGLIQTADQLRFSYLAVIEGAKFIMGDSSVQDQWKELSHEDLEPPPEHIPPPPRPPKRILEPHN
wild-type PTP1B (protein tyrosine phosphatase 1B), sequence (P18031 1-321 limits assumed): as the sequence (P18031 1-321 P180C/P185C limits assumed) above, with C180P, C185P counted along it

Consider `O=C1OC2(c3ccccc31)c1ccc(O)c([As]3SCCS3)c1Oc1c2ccc(O)c1[As]1SCCS1` [FlAsH-EDT2, 4′,5′-bis(1,3,2-dithioarsolan-2-yl)fluorescein], for which the IC50 – broadly, the concentration at which inhibition is half-maximal – in test [1] is roughly 130 nM.
In the case of `O=[N+]([O-])c1ccc(OP(=O)(O)O)cc1` [para-nitrophenyl phosphate], the Km (as a rule, the concentration of substrate that gives half-maximal velocity) was determined as 2030 ± 250 µM in test [2], 2290 ± 210 µM in test [3] and 980 ± 90 µM in test [4].

These data come from paper PMC3288891 (2012).
